“Also recorded” adds a separate entry of the source.
Experiments:
[1] = system: Pseudomonas aeruginosa; test: Microtiter plate biofilm inhibition assay (crystal violet); type: cell-based; settings: 10 μg/ml, LB media with 0.2% glucose, 24 hours at room temperature, average of three wells
Protocol: A microtiter plate assay was used to quantitatively measure the effect each tested compound had on the ability of bacteria to form a biofilm. In this example, a concentrated solution of each compound tested was loaded separately into three separate wells of a polystyrene microtiter plate. In addition, each assay included triplicate wells correlating to negative and positive controls. For the positive controls, biofilm inhibitors of known activity were used, whereas no inhibitors were added to wells correlating to negative controls. […] Thus, each well contained a final volume of approximately 200 μl (not including the volume of the concentrated inhibitor). […] The microtiter plates were then placed on a shaker for 24 hours at room temperature. After the 24 hour incubation period, the microtiter plate was removed from the shaker, rinsed, and stained. During the rinsing step, the test compound, media, and bacterial inoculum solution was drained from the plate, approximately 300 μl of 0.1M phosphate buffered saline (PBS) was added to each well, which was subsequently drained from the plate. The rinsing step removed any suspended cells from the assay. 0.1% crystal violet stain was added to each well for approximately 20 minutes. Next, the crystal violet solution was drained from the microtiter plate. The plate was rinsed with PBS as described above four (4) times to remove any excess stain from the plate. Following the PBS rinsing steps, the plate was eluted with 250 μl/well of ethanol, which improved the detection of the stain. The plate was immediately analyzed spectrophotometrically at 540 nm using a microtiter plate reader. The inhibitory effect each compound had on the bacteria's ability to form a biofilm on the surface of each well was determined as follows: The absorbance values observed for each set of three (3) wells correlating with a test compound or control were averaged. The average absorbance value for each test compound was compared to the average absorbance value of the negative control (the positive control was employed to verify proper assay function). In general, biofilm inhibition activity is inversely proportional to absorbance values, whereby, for example, low absorbance values correlate with significant inhibition activity and high absorbance values correlate with small or no inhibition activity. The approximate percent inhibition observed for each compound was calculated by comparing the average absorbance value for each test compound to the average absorbance value for the negative controls. Table 2 summarizes the average percent inhibition observed for the tested compounds listed against biofilms generated by Pseudomonas aeruginosa.

[2] = system: E. coli JM109; test: Biofilm inhibition assay in 96 well plates (adapted from Pratt and Kolter); type: cell-based, Escherichia coli; settings: 10 μg/ml, LB with or without 0.2% glucose, 37° C. for two days without shaking
Protocol: Such compounds were evaluated using an assay adapted from a protocol reported in Pratt and Kolter, 1998, Molecular Microbiology, 30: 285-293; and Li et al., 2001, J. Bacteriol., 183: 897-908. […] Negative controls included only ethanol (the solvent for each test compound). To quantify the biofilm mass, the suspension culture was removed, the biofilm was washed three times with water, and then stained with 0.1% crystal violet for 20 minutes. Next, the plates were washed three times with water and analyzed by spectrophotometry at 540 nm to quantify the biofilm mass (by comparing the biofilm mass in the wells containing a test compound to that of the control wells).

[3] = system: Pseudomonas aeruginosa; test: Minimum inhibitory concentration (NCCLS broth microdilution); type: cell-based; settings: LB media with 0.2% glucose, 35° C. for 20-24 hours
Protocol: The minimum inhibitory concentrations (MICs) for several of the specific biofilm inhibitors described herein were determined against several targets, including P. aeruginosa, E. coli, and Staphylococcus aureus. The MICs of the biofilm inhibitors were measured using the reference broth microdilution method recommended by the National Committee for Clinical Laboratory Standards (NCCLS). […] In each assay, positive and negative controls were employed, wherein the positive control included an antimicrobial agent with a known potency range that was used to ensure proper assay performance. The negative control, generally, included the solvent in which the test compounds were dissolved. In this example, the wells correlating to the negative controls included ethanol (without any biofilm inhibitors). […] Thus, each well contained a final volume of approximately 200 μl (not including the volume of the concentrated inhibitor). […] After bacterial inoculation and loading of test and control samples, the plate was incubated in an ambient air environment at 35° C. for 20-24 hours. The plate was subsequently rinsed, stained, and analyzed in accordance with the procedures described in Example 1. […] The minimum inhibitory concentrations were calculated as the lowest inhibitor concentration at which biofilm inhibition was observed.

[4] = system: Escherichia coli; test: as above; type: cell-based; settings: LB media with 0.2% glucose, 35° C. for 20-24 hours
Protocol: (§1) The minimum inhibitory concentrations (MICs) for several of the specific biofilm inhibitors described herein were determined against several targets, including P. aeruginosa, E. coli, and Staphylococcus aureus. The MICs of the biofilm inhibitors were measured using the reference broth microdilution method recommended by the National Committee for Clinical Laboratory Standards (NCCLS).
(§2) […]. The negative control, generally, included the solvent in which the test compounds were dissolved. In this example, the wells correlating to the negative controls included ethanol (without any biofilm inhibitors).
(§3) In this example, 150 μl of sterile media was added to each well (LB media with 0.2% glucose), along with appropriate volumes of concentrated solutions of the inhibitors to be tested, followed by 50 μl of bacterial inoculum. Thus, each well contained a final volume of approximately 200 μl (not including the volume of the concentrated inhibitor). […]. The plate was subsequently rinsed, stained, and analyzed in accordance with the procedures described in Example 1.
(§4) Tables 7, 8, and 9 summarize the data observed and, specifically, the MICs calculated for the several compounds referenced therein against P. aeruginosa, E. coli, and S. aureus, respectively. The minimum inhibitory concentrations were calculated as the lowest inhibitor concentration at which biofilm inhibition was observed.

[5] = system: Staphylococcus aureus; test: as above; type: cell-based; settings: LB media with 0.2% glucose; 35° C. for 20-24 hours
Protocol: as §1, §2, §3, §4

[6] = system: E. coli; test: Effect on viability/growth of E. coli (absorbance 620 nm); type: cell-based, Escherichia coli; settings: 1 to 15 μg/mL; LB media; 37° C. for two days; FIG. 1
Protocol: The dose/response behavior of compound 108 was tested against E. coli in LB media with and without 0.2% glucose. First, the effect of compound 108 on the viability of E. coli was measured. Compound 108 was added to a 96-well microtiter plate in triplicate wells to final concentrations of 0, 1, 2, 5, 10, and 15 μg/mL. Compound 108 was added to each well on the plate along with 50 μL of E. coli inoculum and 150 μL of LB and incubated at 37° C. for two days without shaking. After incubation, the plate was analyzed spectrophotometrically at 620 nm to quantitate the approximate levels of E. coli growth. The absorbance values observed for the test wells were averaged and compared to a negative control, i.e., wells containing no biofilm inhibitor.

[7] = system: E. coli; test: Dose/response biofilm assay against E. coli (crystal violet, 540 nm); type: cell-based, Escherichia coli
Protocol: In this example, dose/response characteristics of the biofilm inhibitors were measured using compound 108. The assay employed to measure such dose/response characteristics was adapted from a reported protocol. See Pratt and Kolter, 1998, Molecular Microbiology, 30: 285-293; and Li et al., 2001, J. Bacteriol., 183: 897-908.
The biofilm inhibitory effect of compound 108 was then evaluated at different times and concentrations. In the first assay, compound 108 was added to the test system at the same time as the E. coli inoculum. Specifically, compound 108 was added to the system at final concentrations of 0, 1, 2, 5, and 10 μg/mL along with 50 μL of E. coli inoculum and 150 μL of LB media to measure its ability to inhibit the formation of biofilms. In a second assay, compound 108 was added after a biofilm had formed, i.e., 24 hours after the assay plate was inoculated with E. coli in LB media. In a third assay, compound 108 was tested at 0, 1, 2, 5, 10, and 15 μg/mL against E. coli in LB media with 0.2% glucose (whereby compound 108 was introduced into the system at the time of inoculation).
The suspension culture in each of the assay systems described above was drained from the plate and the residual biofilm, if any, was washed three (3) times with water. A solution containing 0.1% crystal violet was added to each well and maintained thereon for approximately 20 minutes. Following the staining procedure, each well was rinsed three (3) times with water. Each well was then analyzed spectrophotometrically in a microtiter plate reader at 540 nm to quantitate approximate biofilm mass and inhibition of biofilm growth by comparison to a negative control, which included inoculum and growth media alone.

[8] = system: Staphylococcus epidermidis; test: Biofilm inhibition assay against Staphylococcus epidermidis; type: cell-based; settings: final concentration of 10 μg/ml, read-out: Inhibition of biofilm formation by S. epidermidis
[9] = system: Pseudomonas aeruginosa strain PAO 1; test: Rotating disk reactor biofilm test in combination with tobramycin; type: cell-based; settings: 48 hours biofilm; compound 110 approximately 100 μg/mL for 24 hours; tobramycin 100 μg/mL for two hours; polystyrene coupons
Protocol: In this example, compound 110 was tested for biofilm inhibition with Pseudomonas aeruginosa in combination with Tobramycin. Specifically, biofilm formation of P. aeruginosa was evaluated using a standardized biofilm method with a rotating disk reactor (RDR), which is also known as “ASTM Standard Method #E-2196-02.” The rotating disk reactor consisted of a one-liter glass beaker fitted with a drain spout. The bottom of the vessel contained a magnetically driven rotor with six 1.27 cm diameter coupons constructed from polystyrene. The rotor consisted of a star-head magnetic stir bar upon which a disk was affixed to hold the coupons. The vessel (with the stir bar) was placed on a stir plate and rotated to provide fluid shear. A nutrient solution (AB Trace Medium with 0.3 mM glucose, see Table 5 below for specific formulation) was added through a stopper in the top of the reactor at a flow rate of 5 mL/min. The reactor volume was approximately 180 mL. At a volume of 180 mL, the residence time of the reactors was 36 minutes. The reactors were operated at room temperature (c.a. 26° C.). In this example, two RDRs were operated in parallel with one receiving compound 110 and the other serving as an untreated control. […] The plates were incubated for 24 hours at 37° C. before colony forming units (CFU) were determined.

[10] = system: human hepatocellular carcinoma cells (HepG2); test: Cytotoxicity, fluorometric detection of mitochondrial activity; type: cell-based; settings: triplicate, approximate, gross cytotoxicity
Source text: Met. […] Chlorpromazine (or its equivalent) was used as a positive control.

SMILES | Biofilm Inhibition- Pseudomonas aeruginosa [1] [%] | Biofilm Inhibition- Escherichia coli [2] [%] | MIC (μg/mL) - Pseudomonas aeruginosa [3] [µg/mL] | MIC (μg/mL) - Escherichia coli [4] [µg/mL] | MIC (μg/mL) - Staphylococcus aureus [5] [µg/mL] | Effect on growth of E. coli [6] | Prevention of biofilm growth at 15 μg/mL ([7]; 15 μg/mL, E. coli in LB, added with inoculum, 0 through 50 hours of incubation, FIG. 2) | Concentration as low as which effective at reducing biofilm mass ([7]; E. coli in LB with 0.2% glucose, added along with the inoculum, FIG. 5) [µg/mL] | Concentration as low as which reduces existing biofilm mass ([7]; E. coli in LB, added 24 hours after inoculation, FIG. 4) [µg/mL] | Concentration as low as which effective in preventing biofilm formation ([7]; E. coli in LB, added along with the inoculum, FIGS. 2 and 3) [µg/mL] | Estimated mass of existing biofilm after 24 hours of incubation with compound ([7]; each of the concentrations tested (1, 2, 5, 10 μg/mL), added 24 hours after inoculation, approximately 50 hours post inoculation, FIG. 4) | inhibition at 10 µg/mL ([1]; Pseudomonas aeruginosa) [%] | inhibition at 10 µg/mL ([2]; Escherichia coli, JM 109, 48 h) [%] | inhibition at 10 µg/mL [8] [%] | CFU (in log 10) [9] | MIC ([3]; Pseudomonas aeruginosa, read-out: MIC (μg/mL) - Pseudomonas aeruginosa) [µg/mL] | MIC ([4]; Escherichia coli, read-out: MIC (μg/mL) - Escherichia coli) [µg/mL] | Inhibition at 30 μM - Hep G2 cells [10] [%]
C[C@@H]1CC[C@]2(C(=O)O)CCC3(C)C(=CCC4C5(C)C[C@@H](O)[C@H](O)C(C)(C)C5CCC43C)C2[C@H]1C (stereo partly shown) [Compound 108] | 52 | 74 | >10 | >15 | >32 | did not inhibit the growth; also recorded: does not inhibit the growth | almost completely prevent biofilm growth | 1 | 1 | 1 | decreased significantly |  |  |  |  |  |  | 
C[C@H]1[C@H](C)CC[C@]2(C(=O)O)CC[C@]3(C)C(=CC[C@@H]4[C@@]5(C)CC[C@H](O)C(C)(C)[C@@H]5CC[C@]43C)[C@H]12 [Compound 110, ursolic acid] |  |  |  |  |  |  |  |  |  |  |  | 35 | 80 | ~25 | 7.1 CFU (in log 10) | > 128 | > 10 | 2
NC[C@H]1O[C@H](O[C@H]2[C@H](O)[C@@H](O[C@H]3O[C@H](CO)[C@@H](O)[C@H](N)[C@H]3O)[C@H](N)C[C@@H]2N)[C@H](N)C[C@@H]1O [Tobramycin, reference compound] |  |  |  |  |  |  |  |  |  |  |  |  |  |  | 6.1 CFU (in log 10) |  |  | 

Source: US20090192327A1, “METHODS AND COMPOSITIONS FOR INHIBITING BIOFILMS” (Sequoia Sciences, Inc., priority 2004, published 2009)
